Test results from paper PMC4355590, “A Kinetic Study of the Main Guaco Metabolites Using Syrup Formulation and the Identification of an Alternative Route of Coumarin Metabolism in Humans” (PLoS ONE, 2015).

Legend:
[1] = Initial screening of bioavailability: 60 mL of guaco syrup orally; type: in vivo, human; conditions: 60 mL guaco syrup (17.6 mg COU, 1.1 mg OCA, 8.9 mg KAU), up to 600 min
Description: All the volunteers fasted for 8 h prior to the administration of guaco syrup and blood collection. […] The anticoagulant used was tetrasodium edetate. […] The pharmacokinetic analysis was performed using a non-compartmental model, considering an extravascular administration route and using WinNonlin Professional software, version 5.3. The relationships among the areas under the curves (r areas = AUC0-t/AUC0-inf), were used to confirm the suitability of the experimental design.

[2] = Stability of stock solutions and working standard solutions; type: physicochemical; conditions: for Mean recovery: n = 8, ± SD
Description: The stability of the stock solutions (1 mg/mL of each analyte and ISs) was evaluated after 30 days of storage in a refrigerator (4°C, amber bottles). The stored solutions were diluted with acetonitrile/water (70:30 v/v) to obtain the same concentration levels as the short-term stability assay. The stability of the stock solutions was evaluated by comparing the mean recovery of the analytes and IS obtained from stored samples to the mean values obtained with freshly prepared samples, at the same concentration levels. The stability of the working standard solutions was assessed using a procedure similar to that described for stock solution stability. […]

[3] = Stability in human plasma: short-term, freeze-thaw and long-term; type: in vitro ADME; conditions: for Mean recovery: n = 8, ± SD
Description: The samples were vortexed for 2 min and then were kept at room temperature for 8 h. Afterward, the samples were spiked with 50 μL of IS solution and were vortexed (2 min) and submitted to the extraction procedures. The short-term stability was evaluated by comparing the mean recovery of the analytes and the IS obtained from stored samples with the mean values obtained with freshly prepared samples, at same concentration levels.
(§1) Freeze-thawed, post-preparative and long-term stability assay samples were prepared and evaluated similar to the short-term stability samples. However, the freeze thawing assay was assessed after undergoing three freeze-thaw cycles (one freeze-thaw cycle per day on three consecutive days) and post-preparative assay, maintaining the extracted samples for 24 hours in the Sample Manager (20°C, transparent vials). The long-term stability of human plasma stored at -40°C was assessed at the end of the study (60 days).

[4] = Post-preparative stability of extracted samples; type: physicochemical; conditions: for Mean recovery: post-preparative: extracted samples 24 hours at 20°C, n = 8, ± SD; for RE: post-preparative
Description: as §1

[5] = 8 h at room temperature, high level (Coumarin 1250.0, 7-hydroxycoumarin 750.0, o-coumaric acid 750.0, Kaurenoic acid 500.0 ng/mL)
[6] = 8 h at room temperature, high level, stored vs freshly prepared
[7] = 8 h at room temperature, low level (Coumarin 50.0, 7-hydroxycoumarin 12.5, o-coumaric acid 25.0, Kaurenoic acid 10.0 ng/mL)
[8] = 8 h at room temperature, low level, stored vs freshly prepared
[9] = 30 days at 4 °C (stock solutions), high level (1250.0, 750.0, 750.0, 500.0 ng/mL)
[10] = 30 days at 4 °C (stock solutions), low level (50.0, 12.5, 25.0, 10.0 ng/mL)
[11] = Long-term: plasma at -40°C, 60 days, high level (1250.0, 750.0, 750.0, 500.0 ng/mL)
[12] = Long-term: plasma at -40°C, 60 days, low level (50.0, 12.5, 25.0, 10.0 ng/mL)
[13] = Short-term: plasma at room temperature for 8 h, high level (1250.0, 750.0, 750.0, 500.0 ng/mL)
[14] = Short-term: plasma at room temperature for 8 h, low level (50.0, 12.5, 25.0, 10.0 ng/mL)
[15] = three freeze–thaw cycles, plasma, high level (1250.0, 750.0, 750.0, 500.0 ng/mL)
[16] = three freeze–thaw cycles, plasma, low level (50.0, 12.5, 25.0, 10.0 ng/mL)
[17] = high level (1250.0, 750.0, 750.0, 500.0 ng/mL)
[18] = low level (50.0, 12.5, 25.0, 10.0 ng/mL)

| Compound | plasma levels after guaco syrup without spiking [1] | Mean recovery [2, 5] | RE [2, 6] | Mean recovery [2, 7] | RE [2, 8] | Mean recovery [2, 9] | Mean recovery [2, 10] | RE ([2]; 30 days at 4 °C, high level) | RE ([2]; 30 days at 4 °C, low level) | Mean recovery [3, 11] | Mean recovery [3, 12] | RE ([3]; Long-term, low level) | Mean recovery [3, 13] | Mean recovery [3, 14] | RE ([3]; Short-term, high level) | RE ([3]; Short-term, low level) | RE ([3]; freeze–thaw cycles, high level) | RE ([3]; freeze–thaw cycles, low level) | Mean recovery [3, 15] | Mean recovery [3, 16] | also measured |
| --- | --- | --- | --- | --- | --- | --- | --- | --- | --- | --- | --- | --- | --- | --- | --- | --- | --- | --- | --- | --- | --- |
| O=C(O)/C=C/c1ccccc1O [OCA, o-coumaric acid] | did not provide sufficient levels | 718.0 ± 48.0 ng/mL | -4.26% | 22.6 ± 1.3 ng/mL | -9.44% | 640.8 ± 45.6 ng/mL | 22.8 ± 1.2 ng/mL | -14.55% | -8.89% | 606.3 ± 26.8 ng/mL | 22.5 ± 0.4 ng/mL | -10.20% | 750.6 ± 29.0 ng/mL | 25.2 ± 0.4 ng/mL | 0.07% | 0.79% | -2.79% | -8.32% | 729.0 ± 41.7 ng/mL | 22.9 ± 1.1 ng/mL | Mean recovery [4, 17]: 727.4 ± 34.5 ng/mL; Mean recovery [4, 18]: 22.7 ± 0.6 ng/mL; RE ([4]; high level): -3.01%; RE ([4]; low level): -2.32% |
| O=c1ccc2ccccc2o1 [COU, 1,2 benzopyrone] | did not provide sufficient levels | 1293.1 ± 30.5 ng/mL | 3.45% | 54.5 ± 3.2 ng/mL | 8.94% | 1173.4 ± 67.9 ng/mL | 56.1 ± 2.3 ng/mL | -6.13% | 12.27% | 1265.7 ± 99.2 ng/mL | 45.1 ± 3.6 ng/mL | -9.71% | 1205.5 ± 31.5 ng/mL | 52.4 ± 1.7 ng/mL | -3.56% | 4.81% | 4.61% | 7.62% | 1307.7 ± 40.7 ng/mL | 53.8 ± 2.7 ng/mL | RE ([3]; Long-term, high level): 1.26%; Mean recovery [4, 17]: 1281.3 ± 44.2 ng/mL; Mean recovery [4, 18]: 47.6 ± 3.4 ng/mL; RE ([4]; high level): 5.00%; RE ([4]; low level): -9.55% |
| O=c1ccc2ccc(O)cc2o1 [7-HCOU, 7-hydroxycoumarin] | did not provide sufficient levels | 757.9 ± 5.6 ng/mL | 1.06% | 11.6 ± 0.6 ng/mL | -7.41% | 791.8 ± 60.5 ng/mL | 11.4 ± 0.9 ng/mL | 5.57% | -8.02% | 674.4 ± 69.7 ng/mL | 11.7 ± 1.1 ng/mL | -6.19% | 738.1 ± 8.4 ng/mL | 11.7 ± 0.6 ng/mL | -1.59% | -6.24% | -4.69% | -7.29% | 714.8 ± 24.9 ng/mL | 11.6 ± 0.6 ng/mL | RE ([3]; Long-term, high level): -10.08%; Mean recovery [4, 17]: 776.4 ± 18.7 ng/mL; Mean recovery [4, 18]: 11.5 ± 0.7 ng/mL; RE ([4]; high level): 3.52%; RE ([4]; low level): -7.73% |
